Holding throughout (type): cell-based, mouse
The subject of test [1] is cortical neurons and astrocytes from PS1-KI M146V mice. Put plainly: Staining of lipid droplets with LipidTox Green. Particulars: 100 nM BI. On the procedure: (§1) Quantification of total cholesterol and cholesteryl esters was performed using the Cholesterol/Cholesteryl Ester Quantitation kit from Calbiochem (428901). Staining of lipid droplets Staining of lipid droplets was performed using HCS LipidTox™ Deep Green neutral lipid stain (Invitrogen H34475) according to the manufacturer's instructions. Lipid droplet staining was quantified using ImageJ. The different values represent the product of the intensity and the area covered by the fluorescent signal above background in every cell examined.
(§2) Staining of lipid droplets was performed using HCS LipidTox™ Deep Green neutral lipid stain (Invitrogen H34475) according to the manufacturer's instructions. Lipid droplet staining was quantified using ImageJ. The different values represent the product of the intensity and the area covered by the fluorescent signal above background in every cell examined.

For test [2], the system named is PS-DKO cells. Put plainly: Staining of lipid droplets with LipidTox Green. The settings on record: BI 100 nM, desipramine 10 μM, GW4869 5 μM, 12-16 h, Gleevec 10 μM. On the procedure: as §1, §2
A further test deals with APP C-terminal fragments. Put plainly: Western blot of APP C-terminal fragments in total homogenates. The settings on record: PS-DKO MEFs total homogenates; BI. On the procedure: Purification of ER, MAM, and mitochondria was performed and analyzed as described (4).
Purification of ER, MAM, and mitochondria was performed and analyzed as described Area-Gomez et al., 2009, the contents of which is hereby incorporated by reference in its entirety.
Purification of ER, MAM, and mitochondria was performed and analyzed as described (Area-Gomez et al, 2009). For C99 detection, samples were run in 4-12% Bis-Tris gels (Criterion XT Precast Midi Gels, BioRad) in XT MES buffer.
(A western blot detects proteins with antibodies after separation by electrophoresis.)

Test [3] concerns PS-DKO cells. Put plainly: Analysis of ER-mitochondrial apposition (colocalization of ER and mitochondrial markers). The settings on record: 100 nM BI, 12-16 h. The method, then: Interactions between mitochondria and ER were performed as described (5).
Cells under were co-transfected with GFP-Sec61-β (Addgene plasmid #15108) and DsRed-Mito (Clontech, #632421) at a 1:1 ratio, using Lipofectamine 2000 (Invitrogen, #11668-027) in serum-free DMEM. Twelve hours post-transfection, cells were analyzed as described (8).
Cells under were co-transfected with GFP-Sec61-β (Addgene plasmid #15108) and DsRed2-Mito (Clontech, #632421) at a 1:1 ratio, using Lipofectamine 2000 (Invitrogen, #11668-027) in serum-free DMEM. Twelve hours post-transfection, cells were analyzed as described (Guardia-Laguarta et al., 2014).
Cells under were co-transfected with GFP-Sec61-β (Addgene plasmid #15108) and DsRed2-Mito (Clontech, #632421) at a 1:1 ratio, using Lipofectamine 2000 (Invitrogen, #11668-027) in serum-free DMEM. Twelve hours post-transfection, cells were analyzed as described (Guardia-Laguarta et al, 2014).

For test [4], the system named is PS-DKO cells. Put plainly: Seahorse analysis of mitochondrial respiration (OCR). Particulars: BI 100 nM, myriocin 5 μM, TAPI-1 5 μM, 12-16 h, Aβ40:Aβ42 10:1, 6 ng/ml. The method, then:
Respirometry of cultured cells was performed using the XF24e Extracellular Flux Analyzer (Seahorse Bioscience). Oxygen consumption was measured in basal conditions (Seahorse media with 25 mM glucose and 2 mM pyruvate) and after the sequential addition of 1 μM oligomycin (Complex V inhibitor), 0.75 μM FCCP (uncoupler) and 1 μM rotenone/1 μM antimycin A (Complex I and Complex III inhibitors respectively).
Respirometry of cultured cells was performed using the XF24e Extracellular Flux Analyzer (Seahorse Bioscience). Oxygen consumption was measured in basal conditions (Seahorse media with 25 mM glucose and 2 mM pyruvate) and after the sequential addition of 1 μM oligomycin (complex V inhibitor), 0.75 μM FCCP (uncoupler), and 1 μM rotenone/1 μM antimycin A (complex I and complex III inhibitors, respectively). All results were averages of five or more biological replicates. Every biological replicate consisted of three technical replicates. For every technical replicate, we plated equal number of cells (25,000 cell/well when MEFs were used, and 50,000 cells/well when human primary fibroblasts were analyzed). The number of cells was also counted after every respirometry assay to correct for cell death. All oxygen consumption (OCR) data were normalized by the number of viable cells or by protein quantity when isolated mitochondria were used.

The next test concerns ACAT1. Put plainly: ACAT activity assay (conversion of 3H-cholesterol to cholesteryl esters). Particulars: PS-DKO cells; 100 nM BI, 12-16 h. The method, then:
To measure cholesterol uptake in vivo, cultured cells were incubated in serum-free medium for 2 h to remove all exogenous lipids. After that, 2.5 μCi/ml of 3H-cholesterol was added to FBS-free DMEM containing 2% FAF-BSA, allowed to equilibrate for at least 30 min at 37° C., and the radiolabeled medium was added to the cells for the indicated periods of time. Cells were then washed and collected in DPBS, removing a small aliquot for protein quantification. Lipids were extracted in 3 volumes of chloroform:methanol (2:1 v/v). After vortexing and centrifugation at 8000×g for 5 min, the organic phase was blown to dryness under nitrogen. […] Iodine-stained bands corresponding to cholesterol and cholesteryl esters were scraped and counted.
(§3) To measure cholesterol esterification in vivo, cultured cells were incubated in serum-free medium for 2 h to remove all exogenous lipids. […] Cells were then washed and collected in DPBS, removing a small aliquot for protein quantification. […] Iodine-stained bands corresponding to cholesterol and cholesteryl esters were scraped and counted.
as §3

Each structure is given as a SMILES string. Entries after “also recorded” stand apart in the source; their conditions may differ.

Consider 1 molecule from patent US11266626B2, “Reduction of ER-MAM-localized APP-C99 and methods of treating alzheimer's disease” (THE TRUSTEES OF COLUMBIA UNIVERSITY IN THE CITY OF NEW YORK, priority 2015, dated 2022).

Take `C[C@@H](NC(=O)c1cc(C(=O)N[C@@H](Cc2ccccc2)[C@H](O)CNC2CC2)cc(N(C)S(C)(=O)=O)c1)c1ccccc1` [BI, β-secretase inhibitor IV]: the “number of lipid droplets (LDs)” value (in test [1]; in the test on PS-DKO cells [2]) was “reduced the number of LDs” in each case. The “accumulation of APP C-terminal fragments” value in the test on APP C-terminal fragments is listed as “eliminates the accumulation of APP C-terminal fragments”. Also, the “degree of ER-mitochondrial co-localization (apposition)” value in the test with PS-DKO cells [3] is reported as “reduced the degree of ER-mitochondrial co-localization significantly; also recorded: rescued the upregulation of ER-mitochondria apposition”. The “mitochondrial respiration (initial oxygen consumption rate, OCR)” value in the test on PS-DKO cells [4] is “reversed the defect in mitochondrial respiration; also recorded: rescued the respiration defects”. Also, in the test with ACAT1, the “incorporation of radiolabeled cholesterol into cholesteryl esters (ACAT1 activity)” value was “reduced significantly the incorporation of radiolabeled cholesterol into cholesterol esters; also recorded: reduced the incorporation of cholesterol into cholesteryl esters”.
